Series [1] has as its system tubulin bundling in human colon cells. The experiment in a line: Immunofluorescence study of tubulin bundling in human colon cells. It is filed as cell-based.
In series [2] the test system is tubulin (3XMTP). The conditions noted are these: cited from earlier work.
In the next series the test system is MT-4 cells. In words: Cytotoxicity in virus-uninfected MT-4 cells. Type of series: cell-based. Particulars: human, mt-4 cells.
Series [3] relates to HTLV-III (human T cell lymphotropic virus type III). In words: Inhibition of HTLV-III infection in MT-4 cells (MTT). It is filed as cell-based. The conditions noted are these: for EC50: HTLV-III infected MT-4 cells, 5 days, MTT. The method, then: Human T cell lymphotropic virus type III (HTLV-III)/lymphadenopathy-associated virus is the etiologic agent of the acquired immune deficiency syndrome (AIDS) and AIDS-related complex. […] (Nakashima, H. et al., Antimicrobial Agents & Chemotherapy, 30, pp 933-937, 1986).
An HTLV type I-Carrying cell line, MT-4, was maintained in RPMI 1640 medium supplemented with 10% fetal calf serum, 100 IU of penicillin G per ml and 100 μg of streptomycin per ml at 37° C. in a CO2 incubator. HTLV-III8 was obtained from the supernatant of the Molt-4/HTLV-III8 culture. The titer of this virus preparation was 3.0×10^5 PFU/ml. MT-4 cells were infected with 0.01 MOI of HTLV-III8. The infected cells resuspended in fresh medium were mixed with a test sample solution (or medium itself for control) to give 2.5×10^4 cells in a 200 μl volume and incubated at 37° C. for 5 days. The surviving cells were measured by the MTT (3-(4,5-dimethylthiazol-2-yl)-2,5-diphenyltetrazolium bromide) method (R. Pauwels et al., J. Virol Methods, 20, pp 309-321, 1988). [formula]
Fifty percent effective concentration (EC50) was obtained from the inhibition rates.

Series [4] relates to syncytium formation between HIV gp-120 expressing BSC-1 cells and HeLa-T4 (CD4) cells. The experiment in a line: Syncytium formation inhibition assay. It is filed as cell-based. The conditions noted are these: for Syncytium inhibitory activity ID50: 3-5 hours, 37° C.
For series [5], the system named is tubulin (3XMTP). The experiment in a line: Electron microscopic observation of microtubule assembly in 3XMTP. Type of series: biochemical, calf. The conditions noted are these: 100 μM.
Series [6] in a line: Cytotoxicity in CEM-SS cells. Particulars: human. Type of series: cell-based.
Series [7] in a line: Cytotoxicity in virus-uninfected MT-4 cells. The conditions noted are these: human; virus-uninfected MT-4 cells. Type of series: cell-based.
In series [8] the test system is tubulin (3XMTP). In words: Tubulin polymerization assay using thrice-cycled microtubule protein (3XMTP), spectrophotometric. It is filed as biochemical, calf. The method, then: Briefly, tubulin was purified from calf brain extracts by three cycles of polymerization at 35° C. in the presence of 1 mM GTP+2.5 mM ATP, and depolymerization at 4° C. in PM buffer pH 6.6 (0.1 M PIPES, […]) containing various concentrations of glycerol as described previously (Williams R. C. and J. C. Lee 1982 Methods in Enzymology 85: pp. 376-385). The tubulin polymerization assay was carried out using 3XMTP in PM buffer containing 0.4 M of glycerol in the presence of test-compound. The polymerization was quantitated by Shimadzu spectrophotometer (Model No. UV 2100U) at 350 nm. Effect of compound on the kinetics of tubulin polymerization was followed for 20 minutes using taxol as a positive control and DMSO as a negative control. Compound in PM buffer +0.4 M glycerol (no MTP) served as buffer (negative) controls.

The next series deals with HIV-1 IIIb. In words: Acute infection of HIV-1 IIIb in CEM-SS cells. It is filed as cell-based.
For series [9], the target named is T1, HIV envelope protein gp120 / T cells (UniProt P01730+P04578).
T1 construct: CD4 native on cells
In words: Binding of HIV envelope protein gp120 to T cells.

Another series can be described thus: Solubility. Type of series: physicochemical. From the text: BU-4641V was isolated as a white amorphous powder. […] It gave positive responses to iodine vapor, sulfuric acid and ferric chloride tests, but negative responses to Rydon-Smith, Dragendorff and anthrone-sulfuric acid tests on silica gel TLC plate.

Values after ≈ are worked out from the molar mass of the structure shown. “Also recorded” adds a separate entry of the source. Where two headings read alike, the source gives them in different places.

Regarding `CC(=O)O[C@H]1C(=O)[C@@]2(C)[C@H]([C@H](OC(=O)c3ccccc3)[C@]3(O)C[C@H](OC(=O)[C@H](O)[C@@H](NC(=O)c4ccccc4)c4ccccc4)C(C)=C1C3(C)C)[C@]1(OC(C)=O)CO[C@@H]1C[C@@H]2O` [Taxol, reference compound], the “tubulin bundling around nuclei (in words)” value in [1] is given as “induces tubulin bundling around nuclei”. In the series with tubulin (3XMTP) [2] (taxol), the “promotion of tubulin polymerization (in words), known” value is given as “promote tubulin polymerization”.

In turn, Dextran sulfate [reference compound] had a CC50 in the series with MT-4 cells of more than 1000 µg/mL. The EC50 in series [3] worked out at 1.4 µg/mL. Further, in [4], the “Syncytium inhibitory activity ID50” value amounted to 12.0 µg/mL.

Turning to `CC1=CCC2(C)C(=O)C(O)=C(C(C)CO)C2CC=C(C)C(O)CCC(C)=CCC1` (stereo not drawn) [BU-4641V], the “microtubule assembly by electron microscopy (in words)” value in the series on tubulin (3XMTP) [5] is “confirmed by electron microscopic observation of microtubule assembly”. For the same compound, the CC50 in [6] was 84 µM; in series [7], 37.8 µg/mL (≈ 93.9 µM). Also, the “promotion of tubulin polymerization (in words)” value in the series on tubulin (3XMTP) [8] was “promotes tubulin polymerization in a dose dependent manner; also recorded: reversibly stimulates polymerization of purified tubulin protein; also recorded: promote tubulin polymerization”. Also, in the series on tubulin (3XMTP) [8] (compared to taxol), the “initial rate of tubulin polymerization (in words)” value is reported as “slower initial rate”. Also, the “reversal of tubulin polymerization by CaCl2 (in words)” value in the series on tubulin (3XMTP) [8] (treatment with CaCl2) is “can be reversed by treatment with CaCl2”. This compound returned an EC50 in series [3] of 0.78 µg/mL (≈ 1.94 µM). For the same compound, the “activity against HTLV-III (in words)” value in series [3] (compared with dextran sulfate) is “more active than dextran sulfate against HTLV-III”. In addition, the “tubulin bundling around nuclei (in words)” value in [1] is recorded as “induces tubulin bundling around nuclei”. The “blocking of acute HIV-1 IIIb infection (in words)” value in the series with HIV-1 IIIb was “only partially blocks the acute infection of HIV-1 IIIb”. In the series with HIV-1 IIIb (acute infection of HIV-1 IIIb), this compound displayed an IC50 of 10 µM. The “binding of HIV envelope protein gp120 to T cells” value in series [9] was “does not affect the binding of HIV envelope protein gp120 to T cells”. For the same compound, the “Syncytium inhibitory activity ID50” value in series [4] was determined as 0.46 µg/mL. Also, the “syncytium inhibitory activity (in words)” value in series [4] (compared with dextran sulfate) was “more potent syncytium inhibitory activity; also recorded: stronger syncytium inhibitory property than that of dextran sulfate”. Also, the solubility result in “Solubility” is “soluble in dimethyl sulfoxide, methanol, methylene chloride, ethyl acetate and alkaline water (such as 0.1 N NaOH); also recorded: insoluble in hexane and water”.

For the compound `Nc1nc2c(ncn2[C@@H]2O[C@H](COP(=O)(O)OP(=O)(O)OP(=O)(O)O)[C@@H](O)[C@H]2O)c(=O)[nH]1` [GTP], the “promotion of tubulin polymerization (in words), known” value in the series with tubulin (3XMTP) [2] (GTP) was “known to reversibly promote tubulin polymerization; also recorded: only active on tubulin in the presence of microtubule associated proteins (MAPS)”.

A word on the CC50: it is the concentration giving 50% cytotoxicity. The EC50 is the midpoint of the concentration-response curve. Read a low EC50 as an effect from little substance. The IC50 is the concentration at which inhibition is half-maximal. The low end stands for greater potency in that assay, the high end for weaker potency in that assay.

The values above are taken from US5266600A (priority 1992, dated 1993).
